Read-outs that look alike come from different tables or passages of the source.
Experiments:
[1] = tested on: CQ-resistant (Dd2) strain of P. falciparum; assay: In vitro antiplasmodial activity, SYBR Green I fluorescence assay, Dd2 strain; type: cell-based, Plasmodium falciparum
Experimental: (§1) A set of 104 new styrylquinoline derivatives were synthesized and investigated for in vitro their antimalarial activity. To test antimalarial activities, different dilutions of compounds were added to P. falciparum culture. Following 72 h incubation at 37° C. in an atmosphere containing 5% CO2, the inhibitory property of the compounds were determined by SYBR Green I fluorescence assay. Meanwhile, SARs studies were conducted.
The SAR studies were focused on improving the in vitro activity of 2-arylvinylquinolines against the CQ-resistant Pf Dd2 strain.

[2] = tested on: HepG2; assay: Cytotoxicity assay using MTS in human hepatocytes; type: cell-based
[3] = In vitro microsomal turnover assay (metabolic stability)
Experimental: Selectivity of compounds were determined by cytoxicity assay using MTS [(3-(4,5-dimethylthiazol-2-yl)-5-(3-carboxymethoxyphenyl)-2-(4-sulfophenyl)-2H-tetrazolium) in human hepatocytes. The metabolic stability of compounds was determined in mouse liver microsomes using an NADPH-regenerating system. The aqueous solubility at pH 7.4 was determined by UV-visible absorption based method. The permeability was assessed by the in vitro double-sink parallel artificial membrane permeability assay 52 that is a model for the passive transport from the gastrointestinal tract into the blood stream.
To assess the metabolic stability, the selected compounds were subjected to an in vitro microsomal turnover assay with mouse liver microsomal preparations. This assay determines the percentage of the parent compound residues after 60 min incubation (Table 7).

[4] = tested on: P. falciparum 3D7 strain (CQ-sensitive); assay: In vitro antiplasmodium activity, 3D7 strain; type: cell-based, Plasmodium falciparum; conditions: Table 6A, nM; footnote calls it IC50; read-out: Antiplasmodium activity 3D7 (converted)
Experimental: as §1

[5] = tested on: late stage (IV-V) gametocytes of 3D7 expressing luciferase parasite; assay: In vitro gametocytocidal activity, late stage; type: cell-based, Plasmodium falciparum; conditions: Plasmodium falciparum, 3D7; late stage gametocytes; means and SEMs of three experiments
Description: (§2) Late stage (IV-V) gametocytes are more refractory to antimalarial drugs than early-stage gametocytes and blood stage parasites, and thus fewer compounds are effective against late stage Pf gametocytes. […] FIGS. 4A and 4B are an examples according to various embodiments illustrating results showing the activity of compound 24 on gametocyte stages, based on an evaluation of the viability of gametocytes after the exposure of compound 24 on early (A) and late (B) gametocytes stages of 3D7 expressing luciferase parasite. In FIGS. 4A and 4B, EC50 data represent the means and SEMs of three experiments. Therefore, arylvinylquinolines represented good leads as new antimalarials with promising dual stage (blood and gametocyte) activity.

[6] = tested on: early stage (I-III) gametocytes of 3D7 expressing luciferase parasite; assay: In vitro gametocytocidal activity, early stage; type: cell-based, Plasmodium falciparum; conditions: Plasmodium falciparum, 3D7, read-out: Early stage IC50 (nM)
Description: as §2

[7] = CQ-resistant (Dd2) strain, 72 h incubation, read-out: EC50 (nmol)

In the case of FC(F)(F)c1cc(/C=C/c2cc(NCCCCN3CCOCC3)c3cc(Cl)ccc3n2)cc(C(F)(F)F)c1 [Compound 102], the EC50 [1, 7] is reported as 108 ± 8 nM.
With Fc1cc(F)cc(/C=C/c2cc(NCCCCN3CCOCC3)c3cc(Cl)ccc3n2)c1 [Compound 103] the EC50 [1, 7] was 185 ± 34.1 nM.
Work on Fc1ccc(/C=C/c2cc(NCCCCN3CCOCC3)c3cc(Cl)ccc3n2)c(F)c1 [Compound 104] yielded an EC50 [1, 7] of 72.6 ± 17.2 nM.
With Fc1ccc(/C=C/c2cc(NCCCCN3CCOCC3)c3cc(Cl)ccc3n2)cc1F [Compound 105] the EC50 [1, 7] was 25.5 ± 6.1 nM, the EC50 ([1]; Table 6A, unit not given (text gives nM), footnote calls it IC50, read-out: Antiplasmodium activity Dd2 (converted)) was 25.5 nM and the “SI, selectivity index = [IC50 (HepG2)/IC50 (Dd2)]” value ([2]; HepG2 versus Dd2) was 241. The IC50 ([2]; Table 6B, unit inferred, footnote IC50 (HepG2), read-out: Cytotoxic activity HepG2 (converted)) was 6140 nM, the “Clint” value ([3]; mouse liver microsomes) was 53.7 µL/min/mg and the “Projected t1/2” value ([3]; mouse liver microsomes (MLM)) was 25.8 min. The “% remaining after 60 min” value ([3]; mouse liver microsomes, 60 min incubation) was 19.9% and the EC50 [4] was 27.6 nM.
Work on Fc1cc(F)c(F)c(/C=C/c2cc(NCCCCN3CCOCC3)c3cc(Cl)ccc3n2)c1 [Compound 106] yielded an EC50 [1, 7] of 588 ± 256 nM.
Fc1cc(F)c(/C=C/c2cc(NCCCCN3CCOCC3)c3cc(Cl)ccc3n2)cc1F [Compound 107] gave an EC50 [1, 7] of 197 ± 39.7 nM.
With Fc1cc(/C=C/c2cc(NCCCCN3CCOCC3)c3cc(Cl)ccc3n2)cc(F)c1F [Compound 108] the EC50 [1, 7] was 130 ± 34.9 nM.
With Fc1cnccc1/C=C/c1cc(NCCCCN2CCOCC2)c2cc(Cl)ccc2n1 [Compound 109] the EC50 ([1]; Dd2 strain, read-out: EC50) was 79.6 ± 11.8 nM.
With Fc1ccc(/C=C/c2cc(NCCCCN3CCOCC3)c3cc(Cl)ccc3n2)cn1 [Compound 110] the EC50 [1, 7] was 54.6 ± 16.5 nM and the IC50 ([1]; Dd2 strain) was 54.6 ± 16.5 nM.
Molecule Fc1ccc(/C=C/c2cc(NCCCCN3CCOCC3)c3cc(Cl)ccc3n2)nc1 [Compound 111] has an EC50 [1, 7] of 73.1 ± 11.9 nM.
Molecule Fc1cccnc1/C=C/c1cc(NCCCCN2CCOCC2)c2cc(Cl)ccc2n1 [Compound 112] has an EC50 ([1]; Dd2 strain, read-out: EC50) of 197 ± 16.5 nM.
Work on Fc1ccc(/C=C/C=C/c2cc(NCCCCN3CCOCC3)c3cc(Cl)ccc3n2)cc1 [Compound 113] yielded an EC50 [1, 7] of 96.5 ± 24.4 nM.
In the case of Clc1ccc2nc(/C=C/C=C/c3ccccc3)cc(NCCCCN3CCOCC3)c2c1 [Compound 114], the EC50 [1, 7] is reported as 143 ± 18.6 nM.
Clc1ccc2nc(-c3ccccc3)cc(NCCCCN3CCOCC3)c2c1 [Compound 119] showed an EC50 [1, 7] of 423 ± 62.7 nM.
With Clc1ccc2nc(-c3ccncc3)cc(NCCCCN3CCOCC3)c2c1 [Compound 120] the EC50 [1, 7] was 796 ± 161 nM.
Work on C[C@H]1[C@@H](O)O[C@@H]2O[C@@]3(C)CC[C@H]4[C@H](C)CC[C@@H]1[C@@]24OO3 [DHA, dihydroartemisinin, reference compound] yielded an IC50 [5] of 37.4 ± 8.9 nM and an IC50 [6] of 17.4 ± 3.7 nM.
Molecule CN(C)c1ccc2nc3ccc(=[N+](C)C)cc-3sc2c1 [Methylene blue, reference compound] has an IC50 [5] of 107 ± 46.3 nM and an IC50 [6] of 74.7 ± 21.9 nM.

— patent US12479803B2, “Antimalarial compounds” (UNIVERSITY OF CENTRAL FLORIDA RESEARCH FOUNDATION, INC., priority 2019, dated 2025)
